Consider 6 molecules from article PMC12527173, “Cytotoxic, anti-inflammatory, antioxidant, and anti-glyoxalase-I evaluation of chelating substances: In silico and in vitro study” (PLOS One, 2025).

Data set [1] has as its system HeLa uterine cervix adenocarcinoma cell line. Put plainly: SRB cytotoxicity assay, HeLa. To be noted: Homo sapiens, 72 h incubation, n = 12, read-out: Cytotoxicity (as of %Control) IC50 value Hela cervix malignancy. Format: cell-based. Here is the method: (§1) The cancer cell lines were cultured in DMEM supplemented with 10% FBS (Bio Whittaker, Verviers, Belgium), HEPES Buffer (10 mM), gentamicin (50 µg/mL), L-glutamine (100 μg/mL), streptomycin ([…]), penicillin (100 µg/mL), and 4-(2-hydroxyethyl)-1-piperazineethanesulfonic acid (HEPES) Buffer (Sigma, St. Luis, MO, USA). The Sulforhodamine B used was obtained from Santa Cruz Biotechnology, Inc. in Texas, USA. […] Periodontal ligament fibroblasts (PDL) were utilized to assess specific cytotoxicity. Cancer cell lines that have survived offer several benefits. They provide a consistent and uninterrupted source of cells, so bypassing any ethical concerns related to the use of human tissue. Additionally, they are cost-effective. The cytotoxicity levels were assessed using the Sulforhodamine B (SRB) colorimetric assay, provided by Santa Cruz Biotechnology, Inc. in Texas, USA. The Spectro Scan 80D UV-VIS spectrophotometer, manufactured by Sedico Ltd. in Nicosia, Cyprus, was employed for this cytotoxicity screening. The cells were co-incubated with substances or a reference agent at various doses ranging from 5 to 200 μg/mL. […] The reduction in cell viability was analyzed by plotting Dose-response curves and expressing the data as a percentage of the control optical density. The IC50 values were obtained using regression analysis.
In general terms: Sulforhodamine B stains cellular protein and so reports cell mass.

For data set [2], the system named is HCT116 colorectal cancer cell line. Put plainly: SRB cytotoxicity assay, HCT116. Format: cell-based. To be noted: Homo sapiens, HCT-116, 72 h incubation, n = 12, read-out: Cytotoxicity (as of %Control) IC50 value HCT116. Here is the method: as §1
The nature of data set [3]: SRB cytotoxicity assay, normal PDL fibroblasts. Format: cell-based. Particulars: normal periodontal ligament (PDL) fibroblasts, 72 h incubation, 0.1–200 µM range, read-out: Cytotoxicity (as of %Control) IC50 value PDL fibroblasts. Here is the method:
as §1

Data set [4] relates to SW480 colorectal cancer cell line. Description: SRB cytotoxicity assay, SW480. Format: cell-based. To be noted: Homo sapiens, 72 h incubation, n = 12, read-out: Cytotoxicity (as of %Control) IC50 value SW480. The protocol: as §1
In data set [5] the test system is Breast cancer cell line MCF7. Description: SRB cytotoxicity assay, MCF7. It counts as cell-based. Particulars: Homo sapiens, 72 h incubation, n = 12, read-out: Cytotoxicity (as of %Control) IC50 value MCF7 mammary malignancy. The protocol: as §1
Data set [6] has as its system CACO2 colorectal cancer cell line. Put plainly: SRB cytotoxicity assay, CACO2. Format: cell-based. Particulars: Homo sapiens, Caco-2, 72 h incubation, n = 12, read-out: Cytotoxicity (as of %Control) IC50 value CACO2. The protocol:
as §1

Data set [7] relates to HT-29 colorectal cancer cell line. Description: SRB cytotoxicity assay, HT29. It counts as cell-based. To be noted: Homo sapiens, 72 h incubation, n = 12, read-out: Cytotoxicity (as of %Control) IC50 value HT29. The protocol: as §1
Data set [8] concerns Human PC3 prostate cancer cell line. Put plainly: SRB cytotoxicity assay, PC3. Format: cell-based. Particulars: 72 h incubation, n = 12, read-out: Cytotoxicity (as of %Control) IC50 value PC3 prostate malignancy. The protocol: as §1
Data set [9] concerns A375 human skin cancer cell line. Description: SRB cytotoxicity assay, A375. To be noted: A-375, 72 h incubation, n = 12, read-out: Cytotoxicity (as of %Control) IC50 value A375 skin melanoma. It counts as cell-based. The protocol: as §1
The subject of data set [10] is PANC1 pancreatic cell line. Put plainly: SRB cytotoxicity assay, PANC1. It counts as cell-based. To be noted: Homo sapiens, PANC-1, 72 h incubation, n = 12, read-out: Cytotoxicity (as of %Control) IC50 value PANC1. Here is the method: as §1
A short description of data set [11]: DPPH free radical scavenger assay. Particulars: DPPH radical scavenging; n = 12. From the text:
This approach relies on the reduction of the radicals, which causes a change in colour from oxidized purple to reduced yellow. Primarily, Diphenyl-2-picryl-hydrazyl (DPPH) is reduced in a solution of methanol (MeOH) when a chemical that donates hydrogen is present. This reduction is due to the creation of the non-radical form DPPH-H. The alteration in colour can be precisely assessed by employing a spectrophotometer within the wavelength range of 515–520 nm. Unlike other assays for radical scavenging, the DPPH radical is stable and yields consistent spectroscopic data. A 0.2 mM DPPH solution was diluted with MeOH and then combined with treatment compounds and ascorbic acid in a 1:1 concentration ratio using a 96-well plate. […] The solution was then incubated for one hour, isolated from light. Subsequently, the alteration in absorbance at a wavelength of 517 nm was quantified using a microplate reader manufactured by Bio-Tek Instrument in the United States. Ascorbic acid served as a strong and traditional benchmark for comparing the effectiveness of radical scavenging agents. The DPPH radical scavenging activity inhibition was calculated using the following equation, where A denotes photometric absorbance: The formula to calculate the percentage difference between a control and a sample is: (A control – A sample)/ A control x 100% [71, 72].

SMILES strings stand for the structures.

Consider `CC(C)=CC[C@@H](O)C1=CC(=O)c2c(O)ccc(O)c2C1=O` [Shikonin], for which the half-inhibitory concentration (IC50) in [1] is 13.9 ± 1.91 µM; in [2], 108 ± 2.6 µM; in data set [4], 41.6 ± 6.37 µM; in [5] it was 37.8 ± 3.89 µM; in [6], 43.8 ± 4.97 µM; in [7], 142.3 ± 0.76 µM. Further, the IC50 in data set [8] came to 176.2 ± 1.25 µM; in data set [9], 56.5 ± 6.9 µM; in [10], 80 ± 2.11 µM; in data set [11], 34.4 ± 5.04 µM. The IC50 at 72 h in data set [3] was greater than 200 µM.

`Cc1ccc(C(=O)c2cc(O)c(O)c([N+](=O)[O-])c2)cc1` [Tolcapone, reference compound]: the IC50 in [1] was 39.35 ± 0.35 µM; in [2], 86.2 ± 6.6 µM; in data set [4], 165 ± 6.58 µM; in data set [5], 25.6 ± 1.49 µM; in data set [6], 94.8 ± 6.65 µM; in [7], 63.3 ± 1.03 µM. Also, the IC50 in data set [8] came out at 257 ± 37.1 µM; in data set [9], 64.1 ± 1.1 µM; in data set [10], 119 ± 9.28 µM; in data set [11] it was 92.1 ± 2.4 µM. In addition, in [3], the IC50 at 72 h is greater than 200 µM.

As for `CC(/C=C/C(=O)NO)=C\[C@@H](C)C(=O)c1ccc(N(C)C)cc1` [Trichostatin A, reference compound], the IC50 was found to be 1.4 ± 0.2 µM in data set [1]; 14 ± 2.5 µM in [2]; 44.3 ± 4.67 µM in [4]; 2.25 ± 0.49 µM in data set [5]; 27.1 ± 1.28 µM in data set [6]; 27 ± 0.85 µM in data set [7]. Besides, the concentration for half-maximal inhibition (IC50) came out at 47.5 ± 3.96 µM in data set [8], 5.6 ± 0.6 µM in data set [9], 95.8 ± 8.2 µM in data set [10] and 99.3 ± 15.5 µM in data set [11]. In data set [3], the IC50 at 72 h was greater than 200 µM.

As for `O=C1c2ccc(O)c(O)c2C(=O)c2c(O)ccc(O)c21` [Quinalizarin], the IC50 in [1] was found to be 85.51 ± 0.44 µM; in data set [2], 72.2 ± 5.7 µM; in data set [4] it was 118 ± 3.04 µM; in [5], 33.2 ± 0.78 µM; in data set [6], 109 ± 9.26 µM; in [7], 144 ± 15.6 µM. The IC50 is 143.1 ± 0.18 µM in data set [8], 48.6 ± 1.8 µM in [9], 127 ± 2.52 µM in data set [10] and 580 ± 26.5 µM in data set [11]. In addition, the IC50 at 72 h in data set [3] is greater than 200 µM.

Consider `C[C@]12CC[C@@H]3c4ccc(O)c(O)c4CC[C@H]3[C@@H]1CC[C@@H]2O` [4-hydroxy-estradiol], for which the 50% inhibitory concentration (IC50) in data set [1] came to 29.8 ± 4.74 µM; in [2], 124 ± 7.8 µM; in data set [4], 109 ± 6.86 µM; in data set [5], 139.8 ± 1.13 µM; in [6], 107 ± 4.77 µM; in data set [7], 118 ± 4.17 µM. In addition, the IC50 is 82.2 ± 8.56 µM in data set [8], 47.1 ± 1.9 µM in data set [9], 66.9 ± 2.69 µM in data set [10] and 506 ± 102 µM in data set [11]. For the same molecule, the IC50 at 72 h in data set [3] is greater than 200 µM.

As for `O=c1cc(O)cc(/C=C/c2ccc(O)c(O)c2)o1` [Hispidin], the IC50 in data set [1] is 122 ± 1.34 µM; in [2], 198 ± 12.2 µM; in data set [4], 34.6 ± 3.11 µM; in data set [5], 384 ± 7.57 µM; in [6], 74.3 ± 1.13 µM; in data set [7], 82.75 ± 0.78 µM. The IC50 worked out at 139 ± 13.6 µM in data set [8], 98.9 ± 9 µM in [9], 130 ± 2.08 µM in data set [10] and 26.3 ± 0.65 µM in data set [11]. Moreover, in data set [3], the half-inhibitory concentration (IC50) at 72 h was greater than 200 µM.

Usually IC50 stands for the midpoint of a concentration-inhibition curve.
